Reference: EP4682146A1, “COMPOSITION INCLUDING NOVEL PYRIDOINDOLE DERIVATIVE COMPOUND AS ACTIVE INGREDIENT FOR PREVENTION OR TREATMENT OF NEURODEGENERATIVE DISEASES” (Neurotarge Co., Ltd., priority 2023, dated 2024)

target: T1, Tau-Synaptogyrin3 interaction (Homo sapiens, UniProt O43761+P10636); assay: Cell-based split luciferase (NanoBit) protein complementary assay for Tau-Synaptogyrin3 interaction in stable cell line HEK293T-TK252-1E2; settings: HEK293T-TK252-1E2 cells, 48 hrs compound treatment, L/F value (luciferase activity/fluorescent intensity) compared to DMSO control
T1 construct: expressed in transfected cells
Method: Live cell luciferase assay: Live cell luciferase activity was measured using NanoGlo® Live Cell Assay System (Cat# N2012. Promega, WI, USA), according to manufacturer's instruction. All microplate-based measurement was performed with BioTek Synergy H1 (Agilent. CA, USA).
For producing HEK293T-TK252 stable cell line for screening, BglII-linearized pTK252 was transfected to HEK293T cells. After 24 hrs transfection, the transfected cells were cultured in the culture media containing 1 µg/ml puromycin (10 mM in DMSO, Cat# J61278/ Alfa Aesar. ThermoFisher Korea, Seoul, Korea) for 9 days. Regular media change was performed in every 3 days with fresh puromycin of indicating concentration during the whole selection period. The selected cells were trypsinized and diluted to 5 cells/ml and seeded to 4x 96 well cell culture plates (100 µl/well), and cultured with the cell culture media containing 1 µg/ml puromycin for 11 days. 18 wells that contained only GFP-positive cells were selected for expansion, and cultured with the cell culture media containing 0.1-0.2 µg/ml puromycin for 14 days. 10 clones were discarded during the expansion due to emerging of non-GFP cells, and 8 clones were validated. The selected clone (1E2) was cultured with the cell culture media containing 0.5 µg/ml puromycin for further experiments.
3 µmol of 1,728 compounds were purchased from Otava Chemicals MB (Vilniaus, Lithuania), dissolved into 300 µl DMSO (10 mM) and stored at -80°C. 4x10^4 HEK293T-TK252-1E2 cells were seeded with 100 µl of the cell culture media into 96 white well cell culture plates (Cat# 30196. SPL, Seoul, Korea), 48 hrs prior to compound treatment. For 10 µM compound treatment, 10 mM compound stock was diluted to 50 µM with the cell culture media, and 25 µl of the diluted compound was added to the designated wells of the 96 well plates. For dose-response experiments, the amount of compounds for dilution was adjusted to fit the volume indicated above. After 48 hrs compound treatment, the cells were washed once with OptiMEM and live cell luciferase activity, fluorescent intensity and fluorescence area scan was measured.
1,728 compounds were treated at 10 µM to HEK293T-TK252-1E2 cells and incubated for 48 hrs. […] Single wash step with culture media without FBS was included before measurement to discard dead cells and to remove FBS that affects luciferase assay. […] Fluorescent intensity was taken for normalization, which is expected to be proportion to the cell number at the measuring point. L/F value which is luciferase activity normalized with fluorescent intensity (L/F = Luciferase activity/ Fluorescent intensity) was calculated for all measurements and compared to L/F value of DMSO controls to calculated the size of inhibitory effect. […] Fluorescence area scan (FA) performed right after luciferase activity and fluorescent intensity measurement, to validate total remaining fluorescent cells in a well as a proxy to the cellular toxicity. FA value was in proportion to WST assay results (data not shown), and average CV of triplicates of all measurements was 0.04.
61 compounds were further tested for dose-response profile, based on inhibitory effect that was measured by L/F value (<60%) and FA-based cell viability (>90%) at 10 µM compared to DMSO control. 10 compounds were considered as hit compounds through three times of reproduction.

T1 sequence (P10636 1-441 isoform P10636-8): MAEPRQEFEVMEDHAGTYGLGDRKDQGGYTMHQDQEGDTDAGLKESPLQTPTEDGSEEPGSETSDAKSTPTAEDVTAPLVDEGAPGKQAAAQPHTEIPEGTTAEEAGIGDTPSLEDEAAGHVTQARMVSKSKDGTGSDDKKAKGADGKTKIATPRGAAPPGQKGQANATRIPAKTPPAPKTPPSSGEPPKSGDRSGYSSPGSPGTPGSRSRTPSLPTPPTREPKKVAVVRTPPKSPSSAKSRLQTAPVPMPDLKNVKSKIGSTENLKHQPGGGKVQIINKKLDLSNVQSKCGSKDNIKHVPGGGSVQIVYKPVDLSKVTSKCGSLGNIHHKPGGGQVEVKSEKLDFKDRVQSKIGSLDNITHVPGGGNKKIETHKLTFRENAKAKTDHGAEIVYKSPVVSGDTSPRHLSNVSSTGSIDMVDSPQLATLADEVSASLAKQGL
T1 sequence (O43761 whole entry): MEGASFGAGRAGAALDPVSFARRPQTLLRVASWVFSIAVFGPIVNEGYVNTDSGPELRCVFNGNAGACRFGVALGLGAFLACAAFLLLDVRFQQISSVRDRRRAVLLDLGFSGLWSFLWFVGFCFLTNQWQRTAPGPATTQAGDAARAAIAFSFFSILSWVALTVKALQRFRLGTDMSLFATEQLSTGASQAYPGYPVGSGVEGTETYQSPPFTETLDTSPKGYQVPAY

| Compound | IC50 [µM] |
| --- | --- |
| O=C(c1cccnc1)N1CCc2[nH]c3cc(-c4ccccc4)ccc3c2C1 [Formula 35, (7-phenyl-1,3,4,5-tetrahydro-2H-pyrido[4,3-b]indol-2-yl)(pyridin-3-yl)methanone] | 3 to 12 |
| Cc1ccccc1-c1ccc2[nH]c3c(c2c1)CN(C(=O)c1nccs1)CC3 [Formula 25, Thiazol-2-yl(8-(o-tolyl)-1,3,4,5-tetrahydro-2H-pyrido[4,3-b]indol-2-yl)methanone] | 3 to 12 |
| O=C(c1ccccc1)N1CCc2[nH]c3ccc(-c4cccnc4)cc3c2C1 [Formula 42, Phenyl(8-(pyridin-3-yl)-1,3,4,5-tetrahydro-2H-pyrido[4,3-b]indol-2-yl)methanone] | 12 to 25 |
| COc1ccc(-c2ccc3[nH]c4c(c3c2)CN(C(=O)c2cccnc2)CC4)cc1 [Formula 63, (8-(4-Methoxyphenyl)-1,3,4,5-tetrahydro-2H-pyrido[4,3-b]indol-2-yl)(pyridin-3-yl)methanone] | < 3 |
| Cc1ccc(NC(=S)N2CCc3[nH]c4ccc(-c5ccc(C)cc5)cc4c3C2)cc1 [Formula 76, N,8-di-p-tolyl-1,3,4,5-tetrahydro-2H-pyrido[4,3-b]indole-2-carbothioamide] | 3 to 12 |
| Cc1ccccc1-c1ccc2[nH]c3c(c2c1)CN(C(=O)c1cccnc1)CC3 [Formula 20, Pyridin-3-yl(8-(o-tolyl)-1,3,4,5-tetrahydro-2H-pyrido[4,3-b]indol-2-yl)methanone] | 3 to 12 |
| O=C(c1cccnc1)N1CCc2[nH]c3ccc(-c4ccccc4)cc3c2C1 [Formula 2, (8-phenyl-1,3,4,5-tetrahydro-2H-pyrido[4,3-b]indol-2-yl)(pyridin-3-yl)methanone] | 3 to 12 |
| O=C(c1cccnc1)N1CCc2[nH]c3ccc(-c4cccnc4)cc3c2C1 [Formula 31, Pyridin-3-yl(8-(pyridin-3-yl)-1,3,4,5-tetrahydro-2H-pyrido[4,3-b]indol-2-yl)methanone] | 12 to 25 |
| N#Cc1cccc(-c2ccc3[nH]c4c(c3c2)CN(C(=O)c2ccccc2)CC4)c1 [Formula 58, 3-(2-benzoyl-2,3,4,5-tetrahydro-1H-pyrido[4,3-b]indol-8-yl)benzonitrile] | 3 to 12 |
| O=C(c1cccnc1)N1CCc2[nH]c3ccc(-c4ccc(F)cc4)cc3c2C1 [Formula 65, (8-(4-fluorophenyl)-1,3,4,5-tetrahydro-2H-pyrido[4,3-b]indol-2-yl)(pyridin-3-yl)methanone] | < 3 |
| N#Cc1ccc(-c2ccc3[nH]c4c(c3c2)CN(C(=O)c2cccnc2)CC4)cc1 [Formula 51] | 3 to 12 |
| Cc1ccccc1-c1ccc2[nH]c3c(c2c1)CN(C(=O)c1cccc(Cl)c1)CC3 [Formula 26, (3-chlorophenyl)(8-(o-tolyl)-1,3,4,5-tetrahydro-2H-pyrido[4,3-b]indol-2-yl)methanone] | 12 to 25 |
| O=S(=O)(c1cccnc1)N1CCc2[nH]c3cc(-c4ccccc4)ccc3c2C1 [Formula 34, 7-phenyl-2-(pyridin-3-ylsulfonyl)-2,3,4,5-tetrahydro-1H-pyrido[4,3-b]indole] | 3 to 12 |
| Cc1ccc2[nH]c3c(c2c1)CN(C(=O)c1ccccc1)CC3 [Formula 68, (8-methyl-1,3,4,5-tetrahydro-2H-pyrido[4,3-b]indol-2-yl)(phenyl)methanone] | 3 to 12 |
| O=C(c1cncnc1)N1CCc2[nH]c3ccc(-c4ccccc4)cc3c2C1 [Formula 8, (8-phenyl-1,3,4,5-tetrahydro-2H-pyrido[4,3-b]indol-2-yl)(pyrimidin-5-yl)methanone] | 3 to 12 |
| Cc1ccc(C(=O)N2CCc3[nH]c4ccc(-c5ccccc5C#N)cc4c3C2)cn1 [Formula 60, 2-(2-(6-Methylnicotinoyl)-2,3,4,5-tetrahydro-1H-pyrido[4,3-b]indol-8-yl)benzonitrile] | 3 to 12 |
| O=C(c1cnccn1)N1CCc2[nH]c3ccc(-c4ccccc4)cc3c2C1 [Formula 7, (8-phenyl-1,3,4,5-tetrahydro-2H-pyrido[4,3-b]indol-2-yl)(pyrazin-2-yl)methanone] | 3 to 12 |
| Cc1ccc(C(=O)N2CCc3[nH]c4ccc(-c5cccc(C#N)c5)cc4c3C2)cn1 [Formula 57, 3-(2-(6-Methylnicotinoyl)-2,3,4,5-tetrahydro-1H-pyrido[4,3-b]indol-8-yl)benzonitrile] | 3 to 12 |
| Cc1ccccc1-c1ccc2[nH]c3c(c2c1)CN(C(=O)c1cccc2c1ccn2C)CC3 [Formula 24, (1-methyl-1H-indol-4-yl)(8-(o-tolyl)-1,3,4,5-tetrahydro-2H-pyrido[4,3-b]indol-2-yl)methanone] | 3 to 12 |

Now from value to molecule:

| IC50 [µM] | Compound |
| --- | --- |
| < 3 | Cc1ccc(-c2ccc3[nH]c4c(c3c2)CN(C(=O)c2ccccc2)CC4)cc1 [Formula 30, Phenyl(8-(p-tolyl)-1,3,4,5-tetrahydro-2H-pyrido[4,3-b]indol-2-yl)methanone] |
| 3 to 12 | COc1cccc(C(=O)N2CCc3[nH]c4ccc(-c5ccccc5)cc4c3C2)c1 [Formula 18, (3-methoxyphenyl)(8-phenyl-1,3,4,5-tetrahydro-2H-pyrido[4,3-b]indol-2-yl)methanone] |
| 3 to 12 | Cc1ccc(-c2ccc3[nH]c4c(c3c2)CN(C(=O)c2ccccc2)CC4)cn1 [Formula 47, (8-(6-methylpyridin-3-yl)-1,3,4,5-tetrahydro-2H-pyrido[4,3-b]indol-2-yl)(phenyl)methanone] |
| < 3 | Cc1ccc(C(=O)N2CCc3[nH]c4ccc(-c5ccc(C)cc5)cc4c3C2)cc1 [Formula 37, p-Tolyl(8-(p-Tolyl)-1,3,4,5-tetrahydro-2H-pyrido[4,3-b]indol-2-yl)methanone] |
| 3 to 12 | COc1ccc(C(=O)N2CCc3[nH]c4ccc(-c5ccc(C)cc5)cc4c3C2)cc1 [Formula 39, (4-methoxyphenyl)(8-(p-tolyl)-1,3,4,5-tetrahydro-2H-pyrido[4,3-b]indol-2-yl)methanone] |
| < 3 | Nc1ccc(-c2ccc3[nH]c4c(c3c2)CN(C(=O)c2ccccc2)CC4)cc1 [Formula 72, (8-(4-Aminophenyl)-1,3,4,5-tetrahydro-2H-pyrido[4,3-b]indol-2-yl)(phenyl)methanone] |
| 3 to 12 | CN(C)c1ccc(-c2ccc3[nH]c4c(c3c2)CN(C(=O)c2ccccc2)CC4)cc1 [Formula 73, (8-(4-(Dimethylamino)phenyl)-1,3,4,5-tetrahydro-2H-pyrido[4,3-b]indol-2-yl)(phenyl)methanone] |
| 3 to 12 | Cc1ccc(C(=O)N2CCc3[nH]c4ccc(-c5ccccc5C#N)cc4c3C2)cc1 [Formula 59, 2-(2-(4-Methylbenzoyl)-2,3,4,5-tetrahydro-1H-pyrido[4,3-b]indol-8-yl)benzonitrile] |
| 12 to 25 | O=C(c1cccc(Cl)c1)N1CCc2[nH]c3ccc(-c4ccccc4)cc3c2C1 [Formula 13, (3-chlorophenyl)(8-phenyl-1,3,4,5-tetrahydro-2H-pyrido[4,3-b]indol-2-yl)methanone] |
| < 3 | O=C(c1ccccc1)N1CCc2[nH]c3ccc(-c4ccc(Cl)cc4)cc3c2C1 [Formula 70, (8-(4-chlorophenyl)-1,3,4,5-tetrahydro-2H-pyrido[4,3-b]indol-2-yl)(phenyl)methanone] |
| 12 to 25 | O=C(c1ccc(C(F)(F)F)cc1)N1CCc2[nH]c3ccc(-c4ccccc4)cc3c2C1 [Formula 12, (8-phenyl-1,3,4,5-tetrahydro-2H-pyrido[4,3-b]indol-2-yl)(4-(trifluoromethyl)phenyl)methanone] |
| 12 to 25 | Cc1ccc(-c2ccc3[nH]c4c(c3c2)CN(C(=O)Nc2ccccc2)CC4)cc1 [Formula 75, N-phenyl-8-(p-tolyl)-1,3,4,5-tetrahydro-2H-pyrido[4,3-b]indole-2-carboxamide] |
| < 3 | Cc1ccc(-c2ccc3[nH]c4c(c3c2)CN(C(=O)c2cccnc2)CC4)cc1 [Formula 29, Pyridin-3-yl(8-(p-tolyl)-1,3,4,5-tetrahydro-2H-pyrido[4,3-b]indol-2-yl)methanone] |
| < 3 | Cc1ccc(C(=O)N2CCc3[nH]c4ccc(-c5ccccc5)cc4c3C2)cc1 [Formula 14, (8-phenyl-1,3,4,5-tetrahydro-2H-pyrido[4,3-b]indol-2-yl)(p-tolyl)methanone] |
